# Test results taken from paper PMC11432795, “Mutagenesis of the Peptide Inhibitor of ASIC3 Channel Introduces Binding to Thumb Domain of ASIC1a but Reduces Analgesic Activity” (Marine Drugs, 2024).
# Positions of bridges follow the written chain, without caps; N, C: chain ends. Residues, ends and D or L forms follow the SMILES beside them. No end group written: not given here.
# Experiments:
# [1] = target: T1, rat ASIC3 channel (Rattus norvegicus, UniProt O35240); assay: Two-electrode voltage clamp, rat ASIC3 in X. laevis oocytes; format: cell-based; details: pH 5.5 stimulus, mean ± S.E.M., 5 cells
# T1 construct: expressed in transfected cells; host or cells: Xenopus laevis oocytes injected with mRNA made from pcDNA3.1-rat ASIC3
# T1 sequence (O35240 1-533): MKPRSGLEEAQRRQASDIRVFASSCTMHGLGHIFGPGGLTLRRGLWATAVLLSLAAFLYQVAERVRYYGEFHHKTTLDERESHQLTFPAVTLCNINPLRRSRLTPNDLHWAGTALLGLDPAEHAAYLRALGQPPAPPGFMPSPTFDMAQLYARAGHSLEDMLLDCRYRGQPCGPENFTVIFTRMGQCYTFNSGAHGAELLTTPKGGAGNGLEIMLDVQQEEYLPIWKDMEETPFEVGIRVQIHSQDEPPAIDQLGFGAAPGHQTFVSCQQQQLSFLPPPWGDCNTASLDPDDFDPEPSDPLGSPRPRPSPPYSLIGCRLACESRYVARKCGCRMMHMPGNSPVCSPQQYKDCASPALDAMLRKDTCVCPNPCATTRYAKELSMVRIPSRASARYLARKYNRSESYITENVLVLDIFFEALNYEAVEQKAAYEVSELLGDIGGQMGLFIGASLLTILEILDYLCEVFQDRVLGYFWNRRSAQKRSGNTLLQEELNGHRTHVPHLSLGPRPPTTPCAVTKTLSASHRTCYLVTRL
# Method: (§1) Figure 3 The effect of mutant peptides S16K and A23K on rat ASIC1a and ASIC3 channels. […] (B) Dose–response curves for the inhibitory effect of mutant peptides on ASIC1a. Each data point represents data from 5 cells. (C) Representative current traces of Ugr9-1, S16K, and A23K at a concentration of 12.5 µM on ASIC3. […] Each point represents data from 5 cells. The depicted currents were induced by a pH 5.5 stimulus following a conditioning pH of 7.4, with peptides applied for 30 s before the pH stimulus. The holding potential (Vh) was −50 mV, and the time interval between applications ranged from 1 to 2 min. Data are presented as mean ± S.E.M.
# (§2) A small portion of the ovary was isolated from frogs under anesthesia induced by a 0.17% solution of procaine methanesulphonate (MS222) (Sigma), followed by treatment with collagenase (1 mg/mL) at room temperature for 2 h. Oocytes at stages IV and V, devoid of follicular membranes, were transferred to ND-96 medium (containing 96 mM NaCl, 5 mM HEPES, 2 mM KCl, 1.8 mM CaCl2, 1 mM MgCl2, pH 7.4). mRNA synthesis was performed from pcDNA3.1 vectors (Invitrogen, Carlsbad, CA, USA) containing the rat ASIC3 gene, as well as pCI vectors containing genes for rat ASIC1a, its mutant analogues, and ASIC1b. mRNA (2.5–10 ng) was then injected into the oocytes. For the ASIC1a/3 heteromeric channels, the mRNA encoding the ASIC1a and ASIC3 subunits were injected in a 1:5 ratio, respectively. Subsequently, the oocytes were incubated for 2–3 days at a temperature of 17–19 °C in ND96 medium supplemented with gentamicin and streptomycin (20 µg/mL each).
# (§3) Whole-cell electrophysiological recordings of ASIC channels were conducted using a two-electrode voltage-clamp setup. Microelectrodes were filled with 3 M KCl. Recordings from oocytes were carried out at a holding potential of −50 mV, with data filtered at 10 Hz and sampled at a rate of 100 Hz using an L780M ADC (LCard, Moscow, Russia). The synchronized delivery of solutions into the chamber and recording of electrophysiological results were carried out using in-house software v.2. Activation of ASIC channels occurred through rapid pH changes in the solution, achieved by replacing the working solution in the chamber with ND96-based solutions at varying pH levels. Specifically, HEPES was substituted with 10 mM MES for pH 5.5–6.5 and MOPS for pH 6.7–7.0.
# (§4) Fresh peptide solutions were meticulously prepared in ND96 buffer with a pH of 7.43 immediately before experiments, with strict control over the pH levels. Peptides were applied for 30 s at a conditioning pH of 7.43 before acid stimulation of the channel. The interval between applications was maintained at a minimum of 1.5 to 2 min.
# (§5) Electrophysiological data analysis was conducted using OriginPro 2018 software (OriginLab, Northampton, MA, USA). Dose–response relationships for Ugr9a-1, S16K, and A23K peptides were fitted using a Hill function: F1(x) = A − A/(1 + (x/IC50)^nH), where F1(x) represents the amplitude of the current at concentration x of the peptide, A is the maximum amplitude of the current, IC50 is the half-maximum inhibitory concentration of the peptide, and nH is the Hill coefficient.
# [2] = target: T2, rat ASIC1a channel (Rattus norvegicus, UniProt P55926); assay: Two-electrode voltage clamp, rat ASIC1a in X. laevis oocytes; format: cell-based; details: pH 5.5 stimulus, mean ± S.E.M., 5 cells
# T2 construct: expressed in transfected cells; host or cells: Xenopus laevis oocytes injected with mRNA made from a pCI-rASIC1a plasmid
# T2 sequence (P55926 1-526): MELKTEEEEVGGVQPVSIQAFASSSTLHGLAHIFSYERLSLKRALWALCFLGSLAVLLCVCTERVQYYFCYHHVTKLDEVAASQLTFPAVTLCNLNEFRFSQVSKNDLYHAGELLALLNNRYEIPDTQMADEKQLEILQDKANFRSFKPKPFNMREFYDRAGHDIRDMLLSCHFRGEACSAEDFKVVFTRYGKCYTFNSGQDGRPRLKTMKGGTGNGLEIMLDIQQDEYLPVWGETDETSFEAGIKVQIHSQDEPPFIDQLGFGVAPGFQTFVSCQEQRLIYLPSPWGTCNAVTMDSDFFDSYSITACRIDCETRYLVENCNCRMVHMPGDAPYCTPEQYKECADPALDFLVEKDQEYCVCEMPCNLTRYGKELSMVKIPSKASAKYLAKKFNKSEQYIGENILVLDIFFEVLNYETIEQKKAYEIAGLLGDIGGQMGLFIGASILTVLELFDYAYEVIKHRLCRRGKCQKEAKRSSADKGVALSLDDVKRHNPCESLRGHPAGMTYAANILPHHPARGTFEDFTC
# Method: as §1, §2, §3, §4, §5
# [3] = cited from earlier work; for analgesic effect on thermal hypersensitivity caused by inflammation: ref [31],[32]; for analgesic effects: ref [16],[17]
# Source text: Selective ligands targeting specific ASIC isoforms are invaluable for structural and functional investigations. Peptide ligands sourced from various animal venoms have emerged as such tools. […] Bot ... || The 29-amino acid peptide Ugr9a-1, isolated from the venom of the northern sea anemone Urticina grebelnyi, represents a structural class of toxins termed “boundless β-hairpin”. […] While the significant involvement of ASIC3 channels in acid-induced, chronic neuropathic and inflammatory pain has been extensively reported, the role of ASIC1a remains less clear.
# [4] = test system: ASIC1a D355A mutant channel; details: ref [23],[28]; cited from earlier work
# Source text: (§6) Electrophysiological experimentation confirmed the activity of recombinant S16K and A23K mutants against rat ASIC1a channels. […] This fact was in good agreement with molecular docking results that predicted tighter interactions of the lysine residue at position 23 with Asp355 and Glu357 residues of the channel. […] To confirm the critical role of th ...
# [5] = test system: ASIC1a E357A mutant channel; details: ref [23],[28]; cited from earlier work
# Source text: as §6
# [6] = test system: ASIC1a channel; details: cited from earlier work
# Source text: Selective ligands targeting specific ASIC isoforms are invaluable for structural and functional investigations. Peptide ligands sourced from various animal venoms have emerged as such tools. […] Bot ...
# [7] = target: rat ASIC3 channel (homomeric) (rat) (UniProt O35240)
molecule,measurement,setting,value
"CC[C@H](C)[C@H](N)C(=O)N[C@@H](CO)C(=O)N[C@H](C(=O)N[C@@H](CC(=O)O)C(=O)N1CCC[C@H]1C(=O)N1CCC[C@H]1C(=O)N[C@H]1CSSC[C@@H]2NC(=O)[C@H](CC(N)=O)NC(=O)CNC(=O)[C@H](CCCCN)NC(=O)CNC(=O)[C@H](CC(=O)O)NC(=O)[C@H](CCCNC(=N)N)NC(=O)[C@H](Cc3c[nH]cn3)NC(=O)[C@H](Cc3ccc(O)cc3)NC(=O)[C@H](CSSC[C@@H](C(=O)NCC(=O)N[C@@H](C)C(=O)N[C@H](C(=O)O)C(C)C)NC(=O)CNC(=O)[C@H](Cc3ccc(O)cc3)NC(=O)[C@H](C)NC(=O)[C@H](CC(=O)O)NC(=O)[C@H](Cc3ccc(O)cc3)NC(=O)[C@H](C(C)C)NC2=O)NC(=O)[C@H](Cc2ccccc2)NC(=O)[C@H](CCCNC(=N)N)NC1=O)[C@@H](C)CC [S16K] (H-ISIDPPCRFCYHRDGKGNCVYDAYGCGAV-OH; disulfide 7-19, 10-26)",nH,"[1]; inhibition of rat ASIC3, conditioning pH 7.4",2.16 ± 0.24
same,IC50,"[1]; rat ASIC3, X. laevis oocytes, TEVC, Vh −50 mV, conditioning pH 7.4, peptide 30 s before stimulus",35.8 ± 4.03 µM
same,Hill slope (nH),"[2]; inhibition of rat ASIC1a, conditioning pH 7.4",2.86 ± 0.09
same,IC50,"[2]; rat ASIC1a, X. laevis oocytes, TEVC, Vh −50 mV, conditioning pH 7.4, peptide 30 s before stimulus, read-out: half-maximal inhibitory concentration (IC50)",22.7 ± 0.42 µM
COc1cc2c(cc1O)[C@H](Cc1ccc(Oc3cc(C[C@@H]4NCCc5cc(OC)c(O)cc54)ccc3O)cc1)NCC2 [lindoldhamine],analgesic effect on thermal hypersensitivity caused by inflammation,[3],substantial analgesic effects
O=C(O)C[C@H](C(=O)O)[C@@H](OC(=O)C1=Cc2cc(O)c(O)cc2[C@@H](c2ccc(O)c(O)c2)[C@@H]1C(=O)O[C@@H](C(=O)O)[C@H](CC(=O)O)C(=O)O)C(=O)O [sevanol],analgesic effect on thermal hypersensitivity caused by inflammation,[3],substantial analgesic effects
"Mamb-1 (LKCYQHGKVVTCHRDMKFCYHNTGMPFRNLKLILQGCSSSCSETENNKCCSTDRCNK; ends and bridges not checked; cysteine pairing not given here; UniProt P0DKR6 22-78, looked up)",effect of D355A channel mutation on inhibitory potential,[4],did not substantially alter the inhibitory potential
same,effect of E357A channel mutation on inhibitory potential,[5],did not substantially alter the inhibitory potential
same,analgesic effects,[3],demonstrate analgesic effects
same,modulation of ASIC1-containing channels,"[6]; ref [14],[15]",negatively modulates ASIC1-containing channels but by stabilizing the closed state
"PcTx1 (EDCIPKWKGCVNRHGDCCEGLECWKRRRSFEVCVPKTPKT; ends and bridges not checked; cysteine pairing not given here; UniProt P60514 1-40, looked up)",analgesic effects,[3],demonstrate analgesic effects
same,modulation of ASIC1a,"[6]; ref [11],[12],[13]",selectively modulates ASIC1a and ASIC1a-containing channels by stabilizing the desensitized state
Ugr9a-1 peptide from the venom of the sea anemone Urticina grebelnyi,"IC50 of inhibition of the pH 5.5-evoked current of rASIC3, two-electrode voltage clamp on X. laevis oocytes",[7],14.2 µM
